Measured values from patent US12649712B2, “Indene compounds, pharmaceutical compositions thereof, and their therapeutic applications” (NucMito Pharmaceuticals Co. Ltd., priority 2020, dated 2026).

Tested on: alpha-smooth muscle actin (α-SMA)
Experiment: Inhibition of TGF-β induced expression of alpha-smooth muscle actin (α-SMA) in CFSC cells, western blot
Assay type: cell-based
Conditions: compound at 10 μM, TGF-β (10 ng/mL), 24 hours, decrease in band intensity vs TGF-β only
Experimental: The ability of a compound to inhibit the TGF-β induced expression of alpha-smooth muscle actin (α-SMA) was evaluated in CCL4-treated fat storing (CFSC) cells. α-SMA is considered as a reliable marker of hepatic stellate cell activation and a key biomarker for liver fibrosis. See, e.g., Meng et al., Nat. Rev. Nephrol. 2016, 12, 325-38; Fabregat et al., FEBS J. 2016, 283, 2219-32.
CFSC cells maintained in a DMEM medium supplemented with 10% fetal bovine serum were seeded to 12-well culture dishes and grown to a confluence of 60-70% the next day. Culture was changed to a serum-free DMEM medium and treated with a compound at 10 μM in the presence of TGF-β (10 ng/mL). The cells were incubated for another 24 hours. All culture was maintained at 37° C. in 5% carbon dioxide.
A NP-40 lysate solution (50 mM Tris (pH 7.4), 150 mM NaCl, 1% NP-40) with EDTA free cocktail added was used to lyse the cells on ice for 30 min. The lysate was collected and centrifuged at 4° C. for 10 min at 12,000 rpm. The pellet was discarded and the supernatant was transferred to a new tube. Cell lysates were loaded with 5×loading buffer and boiled for 10 min, resolved by 10% SDS-polyacrylamide gel electrophoresis (SDS-PAGE), and transferred to PVDF membrane. The membrane was blocked with 5% skim milk in Tris-buffered saline and TWEEN® 20 (TBST; 10 mM Tris-HCl (pH 8.0), 150 mM NaCl, 0.1% TWEEN® 20) for 1 h at room temperature and then incubated with α-SMA and […] antibodies overnight at 4° C. After washing twice with TBST, the membrane was probed with a horseradish […] anti-immunoglobulin (1:5000 dilution) for 1 h at room temperature. After two subsequent rinses in TBST, immunoreactive products were reacted with ECL and visualized by a UVP CHEMSTUDIO™ imaging system. The western blotting bands are quantitated using an ImageJ software. The percentage of inhibition was obtained by calculating the percentage decrease in the band intensity compared to the one treated with TGF-β only.
The results are summarized in Table 1, wherein A represents a value no less of 90% inhibition, B represents a value less than 90% but no less than 80% inhibition, C represents a value less than 80% but no less than 70% inhibition, D represents a value less than 70% but no less than 50% inhibition, and E represents a value less than 50% with a compound at 10 μM.

SMILES: CCCN(c1ccc(F)cc1)c1ccc(/C=C2/C(C)=C(CC(=O)O)c3cc(F)ccc32)cc1 [Compound A33, 2-[(1Z)-5-Fluoro-1-({4-[(4-fluorophenyl)(propyl)amino]phenyl}methylidene)-2-methyl-1H-inden-3-yl]acetic acid]
- inhibition at 10 µM: 70 to 80%

SMILES: CC1=C(CC(=O)O)c2cc(F)ccc2/C1=C\c1ccc(N(CCO)c2ccc(F)cc2)cc1 [Compound A34, 2-[(1Z)-5-Fluoro-1-({4-[(4-fluorophenyl)(2-hydroxyethyl)amino]phenyl}-methylidene)-2-methyl-1H-inden-3-yl]acetic acid]
- inhibition at 10 µM: > 90%

SMILES: CC1=C(CC(=O)O)c2cc(F)ccc2/C1=C\c1ccc(N(c2ccc(F)cc2)c2ccc(C=O)cc2)cc1 [Compound A35, 2-[(1Z)-5-Fluoro-1-({4-[(4-fluorophenyl)(4-formylphenyl)amino]phenyl}-methylidene)-2-methyl-1H-inden-3-yl]acetic acid]
- inhibition at 10 µM: > 90%

SMILES: CC1=C(CC(=O)O)c2cc(F)ccc2/C1=C\c1ccc(N(c2ccccc2)c2ccc(C=O)cc2)cc1 [Compound A36, 2-[(1Z)-5-Fluoro-1-({4-[(4-formylphenyl)(phenyl)amino]phenyl}methylidene)-2-methyl-1H-inden-3-yl]acetic acid]
- inhibition at 10 µM: > 90%

SMILES: CC1=C(CC(=O)NO)c2cc(F)ccc2/C1=C\c1ccc(N(Cc2ccccc2)c2ccc(F)cc2)cc1 [Compound A38, 2-[(1Z)-1-({4-[Benzyl(4-fluorophenyl)amino]phenyl}methylidene)-5-fluoro-2-methyl-1H-inden-3-yl]-N-hydroxyacetamide]
- inhibition at 10 µM: 70 to 80%

SMILES: CC1=C(Cc2nnn[nH]2)c2ccccc2/C1=C\c1cccc(Oc2ccccc2)c1 [Compound A39, 5-{[(1Z)-2-Methyl-1-[(3-phenoxyphenyl)methylidene]-1H-inden-3-yl]methyl}-1H-1,2,3,4-tetrazole]
- inhibition at 10 µM: > 90%

SMILES: CC1=C(Cc2nnn[nH]2)c2ccccc2/C1=C\c1ccc(Oc2ccccc2)cc1 [Compound A40, 5-{[(1Z)-2-Methyl-1-[(4-phenoxyphenyl)methylidene]-1H-inden-3-yl]methyl}-1H-1,2,3,4-tetrazole]
- inhibition at 10 µM: > 90%

SMILES: CC1=C(CCc2nnn[nH]2)c2ccccc2/C1=C\c1ccc(Oc2ccc(Br)cc2)cc1 [Compound A42, 5-{2-[(1Z)-1-{[4-(4-Bromophenoxy)phenyl]methylidene}-2-methyl-1H-inden-3-yl]ethyl}-1H-1,2,3,4-tetrazole]
- inhibition at 10 µM: 70 to 80%

SMILES: CC1=C(CCc2nnn[nH]2)c2ccccc2/C1=C\c1ccc(Oc2ccc(C(C)C)cc2)cc1 [Compound A43, 5-{2-[(1Z)-2-Methyl-1-({4-[4-(propan-2-yl)phenoxy]phenyl}methylidene)-1H-inden-3-yl]ethyl}-1H-1,2,3,4-tetrazole]
- inhibition at 10 µM: > 90%

SMILES: CC1=C(CCc2nnn[nH]2)c2ccccc2/C1=C\c1ccc(Oc2ccc(C(F)(F)F)cc2)cc1 [Compound A45, 5-{2-[(1Z)-2-Methyl-1-({4-[4-(trifluoromethyl)phenoxy]phenyl}methylidene)-1H-inden-3-yl]ethyl}-1H-1,2,3,4-tetrazole]
- inhibition at 10 µM: > 90%

SMILES: CC1=C(CCc2nnn[nH]2)c2ccccc2/C1=C\c1ccc(Oc2cccc(C)c2)cc1 [Compound A46, 5-{2-[(1Z)-2-Methyl-1-{[4-(3-methylphenoxy)phenyl]methylidene}-1H-inden-3-yl]ethyl}-1H-1,2,3,4-tetrazole]
- inhibition at 10 µM: > 90%

SMILES: CC1=C(CCc2nnn[nH]2)c2ccccc2/C1=C\c1ccc(Oc2cccc(C#N)c2)cc1 [Compound A47, 3-(4-{[(1Z)-2-Methyl-3-[2-(1H-1,2,3,4-tetrazol-5-yl)ethyl]-1H-inden-1-ylidene]methyl}phenoxy)benzonitrile]
- inhibition at 10 µM: > 90%

SMILES: COc1cccc(Oc2ccc(/C=C3/C(C)=C(CCc4nnn[nH]4)c4ccccc43)cc2)c1 [Compound A48, 5-{2-[(1Z)-1-{[4-(3-Methoxyphenoxy)phenyl]methylidene}-2-methyl-1H-inden-3-yl]ethyl}-1H-1,2,3,4-tetrazole]
- inhibition at 10 µM: > 90%

SMILES: CC1=C(CCc2nnn[nH]2)c2ccccc2/C1=C\c1ccc(Oc2ccc3ccccc3c2)cc1 [Compound A51, 5-{2-[(1Z)-2-Methyl-1-{[4-(naphthalen-2-yloxy)phenyl]methylidene}-1H-inden-3-yl]ethyl}-1H-1,2,3,4-tetrazole]
- inhibition at 10 µM: > 90%

SMILES: C1=C(Cc2nnn[nH]2)c2ccccc2/C1=C/c1cccc(Oc2ccccc2)c1 [Compound A54, 5-{[(1E)-1-[(3-Phenoxyphenyl)methylidene]-1H-inden-3-yl]methyl}-1H-1,2,3,4-tetrazole]
- inhibition at 10 µM: > 90%

SMILES: CC1=C(CC(=O)O)c2cc(F)ccc2/C1=C\c1ccc(N2CCOCC2)cc1 [Compound A55, 2-[(1Z)-5-Fluoro-2-methyl-1-{[4-(morpholin-4-yl)phenyl]methylidene}-1H-inden-3-yl]acetic acid]
- inhibition at 10 µM: < 50%

SMILES: CC1=C(CC(=O)O)c2cc(F)ccc2/C1=C\c1ccc(-n2cccc2)cc1 [Compound A60, 2-[(1Z)-5-Fluoro-2-methyl-1-{[4-(1H-pyrrol-1-yl)phenyl]methylidene}-1H-inden-3-yl]acetic acid]
- inhibition at 10 µM: < 50%

SMILES: CC1=C(CC(=O)O)c2c(ccc(F)c2F)/C1=C\c1ccc(Oc2ccc(F)cc2)cc1 [Compound A68, 2-[(1Z)-4,5-Difluoro-1-{[4-(4-fluorophenoxy)phenyl]methylidene}-2-methyl-1H-inden-3-yl]acetic acid]
- inhibition at 10 µM: > 90%

SMILES: CC1=C(CC(=O)O)c2c(ccc(F)c2C)/C1=C\c1ccc(Oc2ccc(F)cc2)cc1 [Compound A69, 2-[(1Z)-5-Fluoro-1-{[4-(4-fluorophenoxy)phenyl]methylidene}-2,4-dimethyl-1H-inden-3-yl]acetic acid]
- inhibition at 10 µM: > 90%

SMILES: CC1=C(CC(=O)NO)c2cc(F)ccc2/C1=C\c1ccc(N(CCO)c2ccc(F)cc2)cc1 [Compound A85, 2-[(1Z)-5-Fluoro-1-({4-[(4-fluorophenyl)(2-hydroxyethyl)amino]phenyl}-methylidene)-2-methyl-1H-inden-3-yl]-N-hydroxyacetamide]
- inhibition at 10 µM: > 90%

SMILES: CC1=C(CC(=O)O)c2cc(F)ccc2/C1=C\c1ccc(C(C)(C)C)cc1 [Compound B10, (Z)-2-(5-fluoro-2-methyl-1-(4-t-butylbenzylidene)-1H-inden-3-yl)acetic acid]
- inhibition at 10 µM: 70 to 80%

SMILES: CC1=C(CCc2nnn[nH]2)c2ccccc2/C1=C\c1ccc(C(C)C)cc1 [Compound B30, (Z)-5-(2-(1-(4-isopropylbenzylidene)-2-methyl-1H-inden-3-yl)ethyl)-1H-tetrazole]
- inhibition at 10 µM: > 90%

SMILES: CC1=C(CC(=O)O)c2cc(F)ccc2/C1=C\c1ccc2ccccc2c1 [Compound B34, 2-[(1Z)-5-fluoro-2-methyl-1-[(naphthalen-2-yl)methylidene]-1H-inden-3-yl]acetic acid]
- inhibition at 10 µM: > 90%

SMILES: CC1=C(CC(=O)O)c2cc(F)ccc2/C1=C\c1ccc(C)c2ccccc12 [Compound B35, 2-[(1Z)-5-fluoro-2-methyl-1-[(4-methylnaphthalen-1-yl)methylidene]-1H-inden-3-yl]acetic acid]
- inhibition at 10 µM: > 90%

SMILES: COc1ccc2ccccc2c1/C=C1/C(C)=C(CC(=O)O)c2cc(F)ccc21 [Compound B36, 2-[(1Z)-5-fluoro-1-[(2-methoxynaphthalen-1-yl)methylidene]-2-methyl-1H-inden-3-yl]acetic acid]
- inhibition at 10 µM: > 90%

SMILES: CC1=C(CC(=O)O)c2cc(F)ccc2/C1=C\c1ccc(C2CC2)cc1 [Compound B37, 2-[(1Z)-1-[(4-cyclopropylphenyl)methylidene]-5-fluoro-2-methyl-1H-inden-3-yl]acetic acid]
- inhibition at 10 µM: 80 to 90%

SMILES: C=C(C)c1ccc(/C=C2/C(C)=C(CC(=O)O)c3cc(F)ccc32)cc1 [Compound B39, 2-[(1Z)-5-fluoro-2-methyl-1-{[4-(prop-1-en-2-yl)phenyl]methylidene}-1H-inden-3-yl]acetic acid]
- inhibition at 10 µM: < 50%

SMILES: CC1=C(CC(=O)O)c2cc(F)ccc2/C1=C\c1ccc(C(C(F)(F)F)C(F)(F)F)cc1 [Compound B42, 2-[(1Z)-5-fluoro-1-{[4-(1,1,1,3,3,3-hexafluoropropan-2-yl)phenyl]methylidene}-2-methyl-1H-inden-3-yl]acetic acid]
- inhibition at 10 µM: 80 to 90%

SMILES: CC1=C(CC(=O)N(C)O)c2cc(F)ccc2/C1=C\c1ccc(Oc2ccccc2)cc1 [Compound C1, 2-[(1Z)-5-Fluoro-2-methyl-1-[(4-phenoxyphenyl)methylidene]-1H-inden-3-yl]-N-hydroxy-N-methylacetamide]
- inhibition at 10 µM: 80 to 90%
